This note sets out measurements from patent US20250002464A1, “NOVEL COMPOUND AND PHARMACEUTICAL COMPOSITION COMPRISING SAME” (SAPIENSBIO INC., priority 2021, published 2025).

The assay deals with α-SMA. Description: α-SMA expression inhibitory ability in MRC5 cell line (Western blotting). As to conditions: TGF-β1 (10 ng/mL), 72 hours, relative to TGF-β1 only. The format is cell-based. As for the experimental part: Subsequently, the inhibitory effect on pulmonary fibrosis of the compounds according to the present invention was overall evaluated. An MRC5 cell line was treated with each compound at 10 μM, and 2 hours later, treated with TGF-β1 (10 ng/mL). After 72 hours, the cells were lysed using RIPA Buffer, and then an α-SMA protein level was measured through Western blotting. The α-SMA expression level when treating the cells with each compound and TGF-β1 compared to the α-SMA expression level when treating the cells only with TGF-β1 without the compound was calculated as the α-SMA expression inhibitory ability of the corresponding compound. The α-SMA expression inhibitory ability of each compound is summarized in Table 2 below (A: inhibitory ability≥70%, B: 50%: inhibitory ability<70%, C: inhibitory ability<50%).
On the technique in general: Immunoblotting shows a protein as a band on a membrane.

The inhibition is the percentage by which the read-out fell short of the control. `CC(C(=O)N1CCN(c2ccc(F)cc2)c2cc(F)ccc21)N1CCCC[C@H]1C` (stereo partly drawn) [Compound 49, 1-(6-fluoro-4-(4-fluorophenyl)-3,4-dihydroquinoxaline-1(2H)-yl)-2-((R)-2-methylpiperidin-1-yl)propan-1-one] displayed an inhibition at 10 µM below 50%.

`CC(C(=O)N1CCN(c2ccc(F)cc2)c2cc(F)ccc21)N1CCCC1` (stereo not shown) [Compound 51, 1-(6-fluoro-4-(4-fluorophenyl)-3,4-dihydroquinoxaline-1(2H)-yl)-2-(pyrrolidin-1-yl)propan-1-one]: the inhibition at 10 µM is at least 70%.

In the case of `CC(C(=O)N1CCN(c2ccc(F)cc2)c2cc(F)ccc21)N1CCN(C)CC1` (stereo not shown) [Compound 52, 1-(6-fluoro-4-(4-fluorophenyl)-3,4-dihydroquinoxaline-1(2H)-yl)-2-(4-methylpiperazin-1-yl)propan-1-one], the inhibition at 10 µM is below 50%.

The compound `CC(C(=O)N1CCN(c2ccc(F)cc2)c2cc(F)ccc21)N1CCCCC1` (stereo not shown) [Compound 53, 1-(6-fluoro-4-(4-fluorophenyl)-3,4-dihydroquinoxaline-1(2H)-yl)-2-(piperidin-1-yl)propan-1-one] gave an inhibition at 10 µM below 50%.

The compound `CC(C(=O)N1CCN(c2ccc(F)cc2)c2cc(F)ccc21)N1CCC[C@H]1C` (stereo partly drawn) [Compound 54, 1-(6-fluoro-4-(4-fluorophenyl)-3,4-dihydroquinoxaline-1(2H)-yl)-2-((R)-2-methylpyrrolidin-1-yl)propan-1-one] registered an inhibition at 10 µM below 50%.

As to `C[C@@H]1CCCN1CCC(=O)N1CCN(c2ccccc2)c2ccccc21` [Compound 57, (R)-3-(2-methylpyrrolidin-1-yl)-1-(4-phenyl-3,4-dihydroquinoxaline-1(2H)-yl)propan-1-one], the inhibition at 10 µM is below 50%.

For the compound `O=C(CCN1CCCC(O)C1)N1CCN(c2ccccc2)c2ccccc21` (stereo not shown) [Compound 58, 3-(3-hydroxypiperidin-1-yl)-1-(4-phenyl-3,4-dihydroquinoxaline-1(2H)-yl)propan-1-one], the inhibition at 10 µM was 50 to 70%.

Compound `CC(C(=O)N1CCN(c2ccccc2)c2ccccc21)N1CCCC1` (stereo not shown) [Compound 61, 1-(4-phenyl-3,4-dihydroquinoxaline-1(2H)-yl)-2-(pyrrolidin-1-yl)propan-1-one] returned an inhibition at 10 µM below 50%.

The compound `CC(C(=O)N1CCN(c2ccccc2)c2ccccc21)N1CCN(C)CC1` (stereo not shown) [Compound 62, 2-(4-methylpiperazin-1-yl)-1-(4-phenyl-3,4-dihydroquinoxaline-1(2H)-yl)propan-1-one] showed an inhibition at 10 µM below 50%.

`CC(C(=O)N1CCN(c2ccccc2)c2ccccc21)N1CCN2CCCC2C1` (stereo not shown) [Compound 64, 2-(hexahydropyrrolo[1,2-a]pyrazin-2(1H)-yl)-1-(4-phenyl-3,4-dihydroquinoxaline-1(2H)-yl)propan-1-one] registered an inhibition at 10 µM below 50%.

Turning to `CC(NC1CCN(C)C1)C(=O)N1CCN(c2ccccc2)c2ccccc21` (stereo not shown) [Compound 65, 2-((1-methylpyrrolidin-3-yl)amino)-1-(4-phenyl-3,4-dihydroquinoxaline-1(2H)-yl)propan-1-one], the inhibition at 10 µM was below 50%.

In turn, `C[C@@H]1CCCCN1C(=O)CN1CCN(c2ccccc2)c2ccccc21` [Compound 70, (R)-1-(2-methylpiperidin-1-yl)-2-(4-phenyl-3,4-dihydroquinoxaline-1(2H)-yl)ethan-1-one] came in with an inhibition at 10 µM of 50 to 70%.

`C[C@H]1CCCCN1C(=O)CN1CCN(c2ccccc2)c2ccccc21` [Compound 71, (S)-1-(2-methylpiperidin-1-yl)-2-(4-phenyl-3,4-dihydroquinoxaline-1(2H)-yl)ethan-1-one]: the inhibition at 10 µM was below 50%.

Take `CN1CCN(C(=O)CN2CCN(c3ccccc3)c3ccccc32)CC1` [Compound 73, 1-(4-methylpiperazin-1-yl)-2-(4-phenyl-3,4-dihydroquinoxaline-1(2H)-yl)ethan-1-one]: the inhibition at 10 µM lay in the range of 50 to 70%.

In turn, `O=C(CN1CCN(c2ccccc2)c2ccccc21)N1CCN2CCCC2C1` (stereo not shown) [Compound 75] registered an inhibition at 10 µM of 50 to 70%.

As for `O=C(CN1CCN(c2ccccc2)c2ccccc21)N1CCN(C2CC2)CC1` [Compound 76, 1-(4-cyclopropylpiperazin-1-yl)-2-(4-phenyl-3,4-dihydroquinoxaline-1(2H)-yl)ethan-1-one], the inhibition at 10 µM is below 50%.

`O=C(CN1CCN(c2ccccc2)c2ccccc21)N1CCCC(O)C1` (stereo not shown) [Compound 77, 1-(3-hydroxypiperidin-1-yl)-2-(4-phenyl-3,4-dihydroquinoxaline-1(2H)-yl)ethan-1-one] returned an inhibition at 10 µM below 50%.

Consider `O=C(CCN1CCCC1)N1CCN(Cc2ccccc2)c2ccccc21` [Compound 78, 1-(4-benzyl-3,4-dihydroquinoxaline-1(2H)-yl)-3-(pyrrolidin-1-yl)propan-1-one], for which the inhibition at 10 µM was in the range of 50 to 70%.

Compound `O=C(CCN1CCCCC1)N1CCN(Cc2ccccc2)c2ccccc21` [Compound 79, 1-(4-benzyl-3,4-dihydroquinoxaline-1(2H)-yl)-3-(piperidin-1-yl)propan-1-one] yielded an inhibition at 10 µM below 50%.

In turn, `CN1CCN(CCC(=O)N2CCN(Cc3ccccc3)c3ccccc32)CC1` [Compound 80, 1-(4-benzyl-3,4-dihydroquinoxaline-1(2H)-yl)-3-(4-methylpiperazin-1-yl)propan-1-one] yielded an inhibition at 10 µM of 50 to 70%.

For `CC(C(=O)N1CCN(Cc2ccccc2)c2ccccc21)N1CCCCC1` (stereo not shown) [Compound 82, 1-(4-benzyl-3,4-dihydroquinoxaline-1(2H)-yl)-2-(piperidin-1-yl)propan-1-one], the inhibition at 10 µM is below 50%.

In turn, `CC(C(=O)N1CCN(Cc2ccccc2)c2ccccc21)N1CCN(C)CC1` (stereo not shown) [Compound 83, 1-(4-benzyl-3,4-dihydroquinoxaline-1(2H)-yl)-2-(4-methylpiperazin-1-yl)propan-1-one] yielded an inhibition at 10 µM of 50 to 70%.

`O=C(CN1CCCCC1)N1CCN(Cc2ccccc2)c2ccccc21` [Compound 85, 1-(4-benzyl-3,4-dihydroquinoxaline-1(2H)-yl)-2-(piperidin-1-yl)ethan-1-one] displayed an inhibition at 10 µM below 50%.

Compound `O=C(CCN1CCCCC1)N1CCN(Cc2ccccc2Cl)c2ccccc21` [Compound 88, 1-(4-(2-chlorobenzyl)-3,4-dihydroquinoxaline-1(2H)-yl)-3-(piperidin-1-yl)propan-1-one] came in with an inhibition at 10 µM below 50%.

As for `CN1CCN(CCC(=O)N2CCN(Cc3ccccc3Cl)c3ccccc32)CC1` [Compound 89, 1-(4-(2-chlorobenzyl)-3,4-dihydroquinoxaline-1(2H)-yl)-3-(4-methylpiperazin-1-yl)propan-1-one], the inhibition at 10 µM fell in the range of 50 to 70%.

As to `O=C(CN1CCCCC1)N1CCN(Cc2ccccc2Cl)c2ccccc21` [Compound 94, 1-(4-(2-chlorobenzyl)-3,4-dihydroquinoxaline-1(2H)-yl)-2-(piperidin-1-yl)ethan-1-one], the inhibition at 10 µM lay in the range of 50 to 70%.

For the compound `CN1CCN(CC(=O)N2CCN(Cc3ccccc3Cl)c3ccccc32)CC1` [Compound 95, 1-(4-(2-chlorobenzyl)-3,4-dihydroquinoxaline-1(2H)-yl)-2-(4-methylpiperazin-1-yl)ethan-1-one], the inhibition at 10 µM lay within 50 to 70%.

In turn, `CN1CCN(CCC(=O)N2CCN(Cc3cccc(Cl)c3)c3ccccc32)CC1` [Compound 98, 1-(4-(3-chlorobenzyl)-3,4-dihydroquinoxaline-1(2H)-yl)-3-(4-methylpiperazin-1-yl)propan-1-one] returned an inhibition at 10 µM below 50%.
